Legend:
[1] = tested on: SKOV3 cells expressing shScramble or shUQCR11; test: Viability of isogenic SKOV3 lines expressing shScramble or shUQCR11 treated with MTHFD2 inhibitor; format: cell-based; conditions: SKOV3 cells with UQCR11 knocked down vs shScramble
Excerpt: FIG. 2 Multi-objective metabolic flux analysis identifies MTHFD2 as a collateral lethal target in UQCR11-null ovarian cancers with in vitro, clinical and pan-cancer implications. a, Workflow elucidating multi-objective flux analysis algorithm comparing flux distributions of cancers with and without deletions for identification of collateral lethal pathways. b, Multi-objective metabolic Pareto frontier and metabolic fluxes of MTHFD1, MTHFD2, RNA and DNA syntheses in UQCR11-null and -intact models. Radar plots represent Pareto-optimal flux distributions from maximal biomass to maximal ATP maintenance (counterclockwise). c, mRNA expression of UQCR11 and MTHFD2 in parental ovarian cancer cell lines. Data presented as mean±s.d. (n=6), analysed using two-tailed Student's t-test. d, Protein expression of MTHFD2 and UQCR11. Representative immunoblots with β-actin as loading control. e, Cell viability after dox-induced shMTHFD2 knockdown. […] (n=3), analysed using two-way analysis of variance (ANOVA) with Dunn's correction. f, Viability of parental ovarian cancer lines treated with MTHFD2 inhibitor. […] Data analysed pairwise by log-rank test. k, Overall survival of patients with UCEC and low UQCR11 (bottom quartile) expression and high (top quartile) expression of MTHFD2 compared with patients with low UQCR11 and MTHFD2 (bottom quartile) expression. Data analysed by log-rank test. […]

[2] = tested on: parental ovarian cancer lines and isogenic SKOV3 lines; test: Viability with MTHFD2 inhibitor and uridine supplementation; format: cell-based; conditions: UQCR11-null parental and SKOV3 shUQCR11 cells compared with UQCR11-intact cells
Description: FIG. 15 Investigating metabolic consequence of Complex III impairment and activity of paralogous pathways other than oxidative MTHFD2. (a) Effect of MTHFD2 inhibitor ([…]) and uridine (50 μM) supplementation on viability of parental ovarian cancer lines that are UQCR11—intact (SKOV3) or UQCR11-null (HeyA8, OVCAR8, CAOV3). Data are representative of two independent experiments and presented as mean±s.d. (n=6). Data analyzed with one-way ANOVA with Tukey's correction for multiple comparisons. (b) Effect of MTHFD2 inhibitor and uridine supplementation on viability of isogenic SKOV3 lines expressing shScramble or shUQCR11. […] Data analyzed with one-way ANOVA with Tukey's correction for multiple comparisons. […] (n=6) and analyzed using two-tailed Student's t-test. (d) mRNA expression of NNT, IDH2, IDH3A measured via qRT-PCR after knocking down with shNNT, shIDH2, and shIDH3A, relative to scramble shRNA (shScr), verifying knockdown efficiency in SKOV3 and OVCAR8 cell-lines. […] Data analyzed using unpaired two-tailed Student's t-test. […] Data are analyzed using ordinary one-way ANOVA with multiple comparisons. […] Loss of viability calculated by comparing respective viability in vehicle control-treated cells to MTHFD2 inhibitor-treated cells. […] (n=6) and analyzed using ordinary one-way ANOVA with Dunnett's correction for multiple comparisons. Error bars are calculated using propagation of error principles.

Cc1c(N2CCN(C)[C@@H](C)C2)ccc2c3c(c(=O)oc12)CN(C(=O)c1ccc(NS(C)(=O)=O)c(OC(F)(F)F)c1)CC3 [DS18561882]
GISO concentrations [1]: significantly reduced | proliferation [2]: suppressed proliferation

From US20260018245A1, “SYSTEMS AND METHODS FOR IDENTIFYING AND TARGETING COLLATERAL LETHAL GENES” (The Regents of the University of Michigan, priority 2022, published 2026)
